From US3991041A, “(Phe3 -Ala)1 -somatostatin” (American Home Products Corporation, priority 1975, dated 1976)

Legend:
Assay type in all cases: in vivo, albino male rats
[1] = tested on: glucagon; test: Nembutal/arginine rat test, blood radioimmunoassayed for glucagon
Procedure: (§1) Nembutal (50 mg/kg) was injected intraperitoneally into each rat. Fifteen minutes later a subcutaneous injection of the test compound, somatostatin (200 μg/kg) and physiological saline (control) was administered separately to each of the three groups of rats. Ten minutes later 0.5 milliliters of arginine (300 mg/ml, pH 7.2) was injected into the rats heart. The rats were decapitated five minutes later and their blood was collected in Trasylol -EDTA. Aliquot samples were radioimmunoassayed for growth hormone, glucagon and insulin. The cyclic heptadecapeptide of this invention, with Trp in the L-configuration and in the form of the C-terminal carboxylic acid, selected as representative of the group of compounds disclosed for test purposes, was employed in two additional distinct test procedures at about 5,000 μg/kg dose levels.

[2] = tested on: growth hormone; test: Nembutal/arginine rat test, blood radioimmunoassayed for growth hormone
Procedure: as §1

[3] = tested on: insulin; test: Nembutal/arginine rat test, blood radioimmunoassayed for insulin
Procedure: as §1

Structure (SMILES) | Glucagon ([1]; dose 1,000 μg/kg subcutaneous, arginine-stimulated rats, control 17.1±4.8) [pg/mL] | Glucagon ([1]; dose 4,660 μg/kg, third test, control 3.7±1.3, * Not Significant) [pg/mL] | Glucagon ([1]; dose 5,000 μg/kg, second test, control 14.0±3) [pg/mL] | GH ([2]; dose 1,000 μg/kg subcutaneous, Nembutal 50 mg/kg i.p., arginine intracardiac 10 min after dose, blood 5 min later, control 282±31) [ng/mL] | GH ([2]; dose 4,660 μg/kg, third test, control 202±26) [ng/mL] | GH ([2]; dose 5,000 μg/kg, second test, control 126±25) [ng/mL] | Insulin ([3]; dose 1,000 μg/kg subcutaneous, arginine-stimulated rats, control 243±20, * Not Significant) [μU/ml] | Insulin ([3]; dose 4,660 μg/kg, third test, control 176±1, * Not Significant) [μU/ml] | Insulin ([3]; dose 5,000 μg/kg, second test, control 283±37, * Not Significant) [μU/ml] | Glucagon ([1]; dose 200 μg/kg subcutaneous, arginine-stimulated rats, control 17.1±4.8) [pg/mL] | GH ([2]; dose 200 μg/kg subcutaneous, arginine-stimulated rats, control 282±31) [ng/mL] | Insulin ([3]; dose 200 μg/kg subcutaneous, arginine-stimulated rats, control 243±20) [μU/ml]
C[C@H](NC(=O)[C@H](Cc1ccccc1)NC(=O)[C@H](Cc1ccccc1)NC(=O)[C@@H](N)Cc1ccccc1)C(=O)NCC(=O)N[C@H]1CSSC[C@@H](C(=O)O)NC(=O)[C@H](CO)NC(=O)[C@H]([C@@H](C)O)NC(=O)[C@H](Cc2ccccc2)NC(=O)[C@H]([C@@H](C)O)NC(=O)[C@H](CCCCN)NC(=O)[C@H](Cc2c[nH]c3ccccc23)NC(=O)[C@H](Cc2ccccc2)NC(=O)[C@H](Cc2ccccc2)NC(=O)[C@H](CC(N)=O)NC(=O)[C@H](CCCCN)NC1=O [Example 3, L-phenylalanyl-L-phenylalanyl-L-phenylalanyl-L-alanylglycyl-L-cysteinyl-L- lysyl-L-asparaginyl-L-phenylalanyl-L-phenylalanyl-L-tryptophyl-L-lysyl-L-threonyl-L-phenylalanyl-L-threonyl-L-seryl-L-cysteine, (6→17) triacetate] | 0.6 ± 0.2 | 1.1 ± 0.5 | 6.5 ± 2.3 | 124 ± 11 | 97 ± 7 | 27 ± 2 | 204±18 | 165±16 | 202±37 | – | – | –
C[C@H](N)C(=O)NCC(=O)N[C@H]1CSSC[C@@H](C(=O)O)NC(=O)[C@H](CO)NC(=O)[C@H]([C@@H](C)O)NC(=O)[C@H](Cc2ccccc2)NC(=O)[C@H]([C@@H](C)O)NC(=O)[C@H](CCCCN)NC(=O)[C@H](Cc2c[nH]c3ccccc23)NC(=O)[C@H](Cc2ccccc2)NC(=O)[C@H](Cc2ccccc2)NC(=O)[C@H](CC(N)=O)NC(=O)[C@H](CCCCN)NC1=O [SRIF, somatostatin] | – | – | – | – | – | – | – | – | – | 2.0 ± 1.4 | 117 ± 6 | 136±12
